These results are taken from patent US20070225245A1, “Viral vector driven mutant bacterial cytosine deaminase gene and uses thereof” (priority 1998, published 2007).

Broadly, the IC50 is the midpoint of a concentration-inhibition curve. Read a high IC50 as lower potency. What is called IC20 is the concentration at which the effect reaches the 20% level. A lower IC20 goes with an effect from little substance. As a reminder, the IC80 is the concentration needed for an effect of 80%. Low values mean greater potency, high ones weaker potency.

In brackets after ≈: the same amount, converted by molar mass.

Data set [1] deals with human pancreatic cancer cells. Conditions: Uninfected cells; 5-FC at 764 μg/ml.
Description: To measure the cytotoxicity of 5-FU and 5-FC, glioma cells or pancreatic cancer cells were plated into 96-well tissue culture plates at 5×10^3 cells/well, and allowed to adhere overnight. Next day, serial dilutions of 5-FU or 5-FC were added directly to cells. Cells were incubated for 5 days, and relative cell density was determined using a crystal violet staining assay. Cell culture medium was removed and surviving cells were then fixed and stained with 2% (w/v) crystal violet (Sigma-Aldrich) in 70% ethanol for 3 h at room temperature. The plates were washed extensively, air-dried and optical density was measured at 570 nm using a V Max plate reader (Molecular Devices Corporation, Sunnyvale Calif.). Fractional cell survival at each drug concentration was calculated as the ratio of absorbance at 570 nm of cells incubated in the presence versus absence of drug, corrected for background absorbance of media alone. Fractional cell survival data were plotted against drug concentration and IC50 values extrapolated by piecewise linear regression as the concentration of drug producing a 50% reduction in corrected absorbance.
Data set [2] relates to Intracranial U87MG gliomas. Kind of data set: Survival, intracranial glioma, HSV and 5-FC. The format is in vivo, SCID mice. The conditions noted are these: saline plus 5-FC. The method, then:
Two days later, mice were begun on twice daily intraperitoneal injections of saline (1 ml) or 5-FC (500 mg/kg). Mice were followed for survival.
Studies were undertaken to determine the efficacy of the HSV construct, M012, in in vivo murine glioma models. […] The median survival of animals receiving saline plus 5-FC was 34 days. In a similar study with the D54MG intracranial model, median survival of mice injected intratumorally with M012 and administered 5-FC was 40 days, compared to 27 days with M012 plus saline and 19 days with saline and 5-FC (FIG. 14).

Data set [3] relates to human cell lines derived from gliomas, prostate, colon, and pancreatic carcinomas. Put plainly: 5-FU toxicity, panel of cell lines. The conditions noted are these: range over 12 cell lines. It is filed as cell-based. The method, then:
(§1) Tumor cells (5×10^4) were plated in 96 well plates and allowed to adhere overnight. Cells were then incubated continuously in the presence of increasing concentrations of 5-FU (0-200 μg/ml) and assayed for toxicity using an MTS assay (Promega, Madison Wis.) after 5-days. ICx values were calculated as previously described. U251MG glioma cells were as sensitive to 5-FU as LS174T and WiDR colon carcinoma cells, while D54MG, U87MG and U118MG glioma cells and AsPC-1 pancreatic carcinoma cells were 3-fold less sensitive (Table 2).

The test system of data set [4] is D54MG. Put plainly: 5-FU toxicity, MTS assay. Conditions: Homo sapiens, 120 h, 5 days. It is filed as cell-based. The method, then: as §1
A general note: Tetrazolium assays rely on reduction of a dye to a coloured formazan, in cell work by metabolically active cells.

For data set [5], the system named is U251MG. Put plainly: 5-FU toxicity, MTS assay. Conditions: Homo sapiens, U-251, 120 h, 5 days. The format is cell-based. The method, then:
as §1

Data set [6] deals with U87MG. Put plainly: 5-FU toxicity, MTS assay. The format is cell-based. The conditions noted are these: Homo sapiens, U-87 MG, 120 h, 5 days. The method, then:
as §1

Another data set has as its system LS174T. Put plainly: 5-FU toxicity, MTS assay. It is filed as cell-based. Conditions: Homo sapiens, 120 h, 5 days. The method, then: as §1
The subject of another data set is WiDr. Kind of data set: 5-FU toxicity, MTS assay. The format is cell-based. The conditions noted are these: Homo sapiens, 120 h, 5 days. The method, then: as §1
Another data set relates to BXPC-3. Put plainly: 5-FU toxicity, MTS assay. The conditions noted are these: Homo sapiens, 120 h, 5 days. It is filed as cell-based. The method, then: as §1
The next data set has as its system ASPC-1. Kind of data set: 5-FU toxicity, MTS assay. The format is cell-based. The conditions noted are these: Homo sapiens, ASPC1, 120 h, 5 days. The method, then: as §1
Another data set has as its system U118MG. Kind of data set: 5-FU toxicity, MTS assay. The format is cell-based. The conditions noted are these: Homo sapiens, U-118-MG, 120 h, 5 days. The method, then: as §1
Data set [7] concerns D54MG. Put plainly: 5-FC or 5-FU toxicity (MTS) in Ad-infected cells. It is filed as cell-based. The conditions noted are these: Homo sapiens, Table 14, MOI 0. The method, then:
(§2) Next, cytosine deaminase was administered to glioma cells via the replication deficient adenovirus. Glioma cells plated in T25 flasks were infected with AdCMVCD at several multiplicities of infection (MOI 0-300 pfu/cell) for 1 h at 37° C. At twenty-four hours post-infection, cells were harvested, replated at 5×10^3 cells/well in 96 well plates, and allowed to adhere overnight. […]
(§3) To test this hypothesis, 5-FC toxicity (IC50) was compared in cells infected with AdCMVCD versus AdCDUPRT. […] In Table 13 mean 5-FC IC50 was obtained from 2-5 separate experiments. Cells were infected with AdCMVCD or AdCDUPRT at the indicated MOI (pfu/cell) for 1 h at 37° C. 5-FC toxicity was determined by MTS assay 5 days after drug addition.

Data set [8] deals with U251MG. Kind of data set: 5-FC or 5-FU toxicity (MTS) in Ad-infected cells. It is filed as cell-based. The conditions noted are these: Homo sapiens, U-251, Table 14, MOI 0. The method, then:
as §2, §3

The test system of data set [9] is U87MG. Put plainly: 5-FC or 5-FU toxicity (MTS) in Ad-infected cells. The format is cell-based. The conditions noted are these: Homo sapiens, U-87 MG, Table 14, MOI 0. The method, then:
as §2, §3

Consider `Nc1nc(=O)[nH]cc1F` [5-FC, 5-fluorocytosine], for which, in [1], the cytotoxicity result is given as “no detectable cytotoxicity”. The median survival in data set [2] was found to be 34 days.
Consider `O=c1[nH]cc(F)c(=O)[nH]1` [5-FU, 5-fluorouracil], for which the IC50 was 0.04 to 4.97 µg/mL (≈ 0.308 to 38.2 µM) in data set [3]; 1.1 µg/mL (≈ 8.46 µM) in the data set with D54MG [4]; 0.38 µg/mL (≈ 2.92 µM) in the data set with U251MG [5]; 1.06 µg/mL (≈ 8.15 µM) with U87MG [6]; 0.3 µg/mL (≈ 2.31 µM) in the data set with LS174T; 0.13 µg/mL (≈ 0.999 µM) in the data set on WiDr. The IC50 in the data set on BXPC-3 came out at 0.04 µg/mL (≈ 0.308 µM); in the data set on ASPC-1 it was 1.58 µg/mL (≈ 12.1 µM); in the data set on U118MG it was 1.06 µg/mL (≈ 8.15 µM); with D54MG [7] it was 1.3 µg/mL (≈ 9.99 µM); in the data set with U251MG [8] it was 0.4 µg/mL (≈ 3.08 µM); with U87MG [9], 1.8 µg/mL (≈ 13.8 µM). The IC20 in the data set on D54MG [4] amounted to 0.33 µg/mL (≈ 2.54 µM); in the data set with U251MG [5] it was 0.07 µg/mL (≈ 0.538 µM); with U87MG [6] it was 0.37 µg/mL (≈ 2.84 µM); with LS174T it was 0.11 µg/mL (≈ 0.846 µM); with WiDr, 0.03 µg/mL (≈ 0.231 µM); in the data set with BXPC-3 it was 0.01 µg/mL (≈ 0.0769 µM). For the same molecule, the IC20 came to 0.04 µg/mL (≈ 0.308 µM) in the data set on ASPC-1 and 0.24 µg/mL (≈ 1.85 µM) with U118MG. Also, the concentration for an effect of 80% (IC80) with D54MG [4] worked out at 8.53 µg/mL (≈ 65.6 µM); in the data set on U251MG [5] it was 3.81 µg/mL (≈ 29.3 µM); in the data set on U87MG [6], 14 µg/mL (≈ 108 µM); with LS174T, 2.33 µg/mL (≈ 17.9 µM); with WiDr, 1.7 µg/mL (≈ 13.1 µM); in the data set with BXPC-3, 0.69 µg/mL (≈ 5.3 µM). Further, the IC80 with ASPC-1 amounted to 39.4 µg/mL (≈ 303 µM); in the data set on U118MG, 61.5 µg/mL (≈ 473 µM).
